Source: PMC8476755 (Frontiers in Chemistry, 2021)

What was measured:
GAT1 = molecular target: T1, GAT1 (Homo sapiens, UniProt P30531); test: FLIPR membrane potential (FMP) assay, CHO cells stably expressing GAT1; assay type: cell-based; settings: n = 2
T1 construct: expressed in transfected cells
From the text: In order to scrutinize the mode of inhibition of bicyclo-GABA and the N-methylated derivative 2, the ability to be translocated by BGT1 was investigated in the functional FMP assay able to discriminate between substrates and inhibitors, as previously described ([Al-Khawaja et al., 2014]).
The tsA201 cell line (a transformed HEK293 cell line), the Flp-In CHO cell lines stably expressing human (h) GATs and the HEK293 cell line stably expressing human α1β2γ2 GABAA receptors have been described previously and were cultured accordingly ([Al-Khawaja et al., 2014]; [Falk-Petersen et al., 2020]). […]
The FMP assay performed on human α1β2γ2 GABAA receptors in HEK293 cells was performed as described and data analyzed accordingly ([Falk-Petersen et al., 2020]). […] Test compound solutions were prepared at 4x concentration in assay buffer and added to ligand plates pre-heated at 37°C for 10–15 min in the FLEXstation3 plate reader (Molecular Devices). After incubation, 33.3 µL test compound solution (4x) was automatically transferred to each well in the cell plate and the signal was measured for 90 s by measuring emission at 560 nm caused by excitation at 530 nm. […] Data obtained in the FMP assay are given as relative changes in fluorescence units (ΔRFU) by subtracting the average of the baseline fluorescence signal from the peak fluorescence signal after compound addition. […]

BGT1 = system: BGT1; parameters: method as in Kobayashi et al., 2014; settings: ref Kobayashi et al., 2014, cited from earlier work

T1 sequence (P30531 whole entry): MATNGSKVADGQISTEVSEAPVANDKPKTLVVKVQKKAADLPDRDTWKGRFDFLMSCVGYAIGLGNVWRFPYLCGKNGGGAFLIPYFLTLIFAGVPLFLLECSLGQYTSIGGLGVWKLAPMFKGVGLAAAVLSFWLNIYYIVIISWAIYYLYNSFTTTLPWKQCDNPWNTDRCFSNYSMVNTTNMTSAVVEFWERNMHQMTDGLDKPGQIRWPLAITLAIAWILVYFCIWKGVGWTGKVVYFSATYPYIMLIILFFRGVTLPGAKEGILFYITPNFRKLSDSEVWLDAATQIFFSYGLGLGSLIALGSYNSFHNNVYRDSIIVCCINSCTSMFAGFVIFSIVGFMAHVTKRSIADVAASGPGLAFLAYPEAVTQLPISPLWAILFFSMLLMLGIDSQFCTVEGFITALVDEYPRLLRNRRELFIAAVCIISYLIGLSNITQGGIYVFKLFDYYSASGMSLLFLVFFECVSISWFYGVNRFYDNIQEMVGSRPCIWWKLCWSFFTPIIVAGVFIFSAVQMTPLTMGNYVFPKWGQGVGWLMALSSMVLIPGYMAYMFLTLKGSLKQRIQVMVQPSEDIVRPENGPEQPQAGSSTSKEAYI

## N[C@@]12CC[C@H](C(=O)O)[C@@H]1C2 [bicyclo-GABA, (1S,2S,5R)-5-aminobicyclo[3.1.0]hexane-2-carboxylic acid]
GAT1; in the presence of GABA EC50 concentration (10 µM)
  Inhibitory effect at GAT1: specific to BGT1
GAT1; tested as substrate, without GABA
  Substrate activity at GAT1: lack of activity
BGT1; BGT1 inhibition
  IC50: 590 nM
BGT1
  Higher activity for BGT1 compared to 1: 9 times
BGT1; subtype-selectivity BGT1 vs GAT3
  Higher activity for BGT1 than GAT3: 129 times
